Experimental data as given in US20220073557A1, “FLUORINATED BILE ACIDS” (NZP UK LIMITED, priority 2018, published 2022).
Read-outs that look alike come from different tables or passages of the source.

Columns and labels:
[1] = test system: dopaminergic neurons derived from sPD patients (iNeurons); assay: Mitochondrial function and neuronal morphology measurements in iNeurons from sPD patients; format: cell-based, human; settings: for EC50: Homo sapiens, Neuron
Protocol: (§1) Fibroblasts were cultured in DMEM (Invitrogen) and routinely subcultured every 3-5 days using trypsin to dissociate them.
(§2) Briefly, iNPCs are plated in a 6-well plate and cultured for 2 days in DMEM/F-12 medium with Glutamax™ supplemented with 1% NEAA, 2% B27 (Gibco) and 2.5 μM of DAPT. On day 3, DAPT is removed and the medium is supplemented with 1 μM smoothened agonist (SAG) and FGF8 (75 ng/ml) for additional 10 days. Neurons are replated at this stage. Subsequently SAG and FGF8 are withdrawn and replaced with BDNF (30 ng/ml), GDNF (30 ng/ml), TGF-b3 […] and dcAMP (2 mM, Sigma) for 15 days.
Cells are plated in 96 well plates; for live imaging cells are incubated for one hour at 37 degree with 80 nM tetramethlyrhodamine (TMRM), 1 μM LysoTracker® Green (Invitrogen) and Hoechst Stain solution (Sigma) at 1 μM before imaging using Opera Phenix™. Cellular ATP measurements are undertaken using ATPlite kit (Perkin Elmer) as per manufacturer's instructions. Mitochondrial reactive oxygen species generation was assessed using mitochondrial NpFR2 (probe; a kind gift from Dr Liz New, University of Sydney, Australia) at 20 μM and Hoechst stain solution at 1 μM for 30 mins at 37° C., then the dyes are removed and cells images using Opera Phenix™. Images generated from the live imaging experiments were analysed using Harmony® (Perkin Elmer software). We developed protocols in order to segment nucleus, cell boundary and processes, mitochondria, lysosomes, autophagosomes. We only analysed the z projection images collected from the z stacks.

[2] = test system: mitochondrial respiratory chain complex I; assay: Complex I assay, whole brain homogenate of dosed wild type mice; format: in vivo; settings: wild type mouse whole brain homogenate, FIG. 3
Protocol: Ex vivo mice brain was homogenated in a buffer of 250 mM sucrose, 20 mM HEPES, 3 mM EDTA, pH 7.5 at 4° C. Homogenisation was carried out using a Dounce homogenizer, for cortex samples, and by repetitive passage through a 0.5 mm syringe for isolated striatum. Samples were then incubated with 30 μl of detergent from the AbCam colorimetric Complex I assay kit on ice for 20 minutes. Samples are then centrifuged at 13,000 rpm for 30 mins. Triplicate samples per condition were blocked using the kit blocking buffer on the AbCam colorimetric Complex I assay kit plate for 3 hours. Samples are then washed using the kit wash buffer 3 times before the addition of the kit assay buffer containing NADH and colorimetric dye. The assay plate is read on a plate reader in a kinetic assay programme reading 450 nm in a 30 second interval for 50 minutes.

[3] = test system: dopaminergic neurons derived from sPD patients (iNeurons); assay: Activated caspase 3 immunofluorescence staining in iNeurons; format: cell-based, human; settings: untreated sPD 162
Protocol: as §2
Cells are plated into 96 well plates and fixed using 4% paraformaldehyde for 30 minutes. After PBS washes cells are permeabilised using 0.1% Triton™ X-100 for 10 minutes and blocked using 5% goat serum for 1 hour. Cells are incubated with primary antibodies tyrosine hydroxylase (St John's Laboratory); DAT (Abcam); Tuj (Millipore); Tom20 (BD Biosciences); activated caspase 3 (Cell Signaling); alpha synuclein (Cell Signaling); phosphorylated alpha synuclein (Millipore) at 4° C. for 16 hours. Cells are washed using PBS-Tween® and incubated with Alexa Fluor™-conjugated secondary antibodies 488 and 568 (Invitrogen) and Hoescht (Sigma) 1 μM prior to imaging. Imaging was performed using the Opera Phenix™ high content imaging system (Perkin Elmer).

[4] = test system: sAD and familial AD (PSEN1 mutants) patient fibroblasts; assay: Total cellular ATP levels in Alzheimer's disease patient fibroblasts; format: cell-based, human; settings: 24 hour treatment at 100 nM, 21% restores to control levels
Protocol: Briefly, fibroblasts were cultured as and plated into white 384 well plates with 5000 cells per well in 50 μl of media volume. The plates are left overnight in an incubator to allow the fibroblasts to adhere to the plate surface. The following morning the Glucose based medium is replaced with 25 μl of Galactose based medium. The compounds are added to the plates using a ECHO 550 liquid handling system. The wells were dosed to provide an 8-point concentration range of 0.06 nM-300 nM of compound. After dosing the wells are topped up with a further 25 μl of Galactose based medium and then left in an incubator for 24 hours. Following this incubation the medium is removed from the plate and the wells are washed twice with sterile PBS. The wells are filled with 25 μl of Sterile PBS followed by 12.5 μl of Lysis solution from the ATPlite™ Luminescence ATP detection assay system (Perkin Elmer), including 16 cell free wells to use as blank controls. The plate is then placed on a rotary shaker for 5 mins at 700 rpm. Following the shaking 12.5 μl of ATP substrate solution (Perkin Elmer) is added to each well and a further 5 min of shaking. The plate is then placed in darkness for 10 minutes prior to reading. Using a PHERAStar® plate reader, luminescence intensity is recorded. Following the ATP assay the plates are immediately assayed for DNA content in a CyQUANT® assay.
Immediately following The ATP assay DNA content is assessed with the CyQUANT® NF Cell Proliferation Assay Kit (ThermoFisher). CyQUANT® buffer is prepared immediately before the assay and is comprised of 1 ul CyQUANT® dye per ml×1 HBSS solution. 12.5 ul of CyQUANT® buffer is added to each well. Plate left in incubator for 1 hour then read on a PHERAStar® Plate reader with excitation at 497 nm and emission at 520 nm.
Data shown in the Table 6 below is the mean increase in ATP levels after 24 hour treatment with compounds at 100 nM concentration.

[5] = test system: sporadic PD patient fibroblasts; assay: Mitochondrial membrane potential (MMP, TMRM) in sporadic PD patient fibroblasts; format: cell-based; settings: Homo sapiens, Fibroblast, 24 h
Protocol: as §1
Fibroblasts were cultured and plated into a Griener black 384 pClear® plate at 10000 cells per well in 50 μl of media volume. The plates are left overnight in an incubator to allow the fibroblasts to adhere to the plate surface. The following morning the Glucose based medium is replaced with 25 μl of Galactose based media. The plates were then dosed with the compounds using an ECHO® 550 liquid handling system. The wells were dosed to provide an 8-point concentration range of 0.06 nM-300 nM of compound. After dosing the wells are topped up with a further 25 μl of Galactose based medium and then left in an incubator for 24 hours. After 24 hours, the medium is removed from the wells and replaced with 25 ul phenol free Minimal essential medium with 100 nM TMRM (Sigma) and 10 μM Hoechst Stain (Sigma). The plate is returned to the incubator for another hour after which the stain medium is removed and replaced with 25 ul Phenol free MEM. The plate is then imaged using an IN Cell high content microscope (GE Healthcare) with 10 fields of view per well in 2 channels, Cy3 excitation 542 nm, emission 604-64 nm; and the DAPI excitation 350 nm, emission 450-55 nm at 37° C. with CO2. After imaging the plate is disposed of and the images are Data mined using the INCell developer Toolkit (GE Healthcare).
After the assays had been repeated in triplicate per line and compound the data was then inputted into Graph pad Prism 7 software suite where a dose response curve is generated using the default “[Agonist] vs response (three parameters)” equation.
From this EC50 values, lowest response and maximal response were taken and used to calculate the Geometric mean between the 5 different lines assessed.
The mitochondrial membrane potential was measured in fibroblasts from 6 (Table 1) or 3 (Table 2) patients with sporadic Parkinson's disease when treated with Compounds of the invention or Comparator compounds. The results are shown in Tables 1 and 2, where “Bottom”=max response with lowest dose of compound (0.06 nM) and “top”=max response with highest dose of compound (300 nM).

**Q.** `C[C@H](CCC(=O)O)[C@H]1CC[C@H]2[C@@H]3[C@@H](O)C[C@@H]4C[C@@H](O)C(F)(F)C[C@]4(C)[C@H]3CC[C@]12C` [Compound 7, 2,2-difluoro-3β,7β-dihydroxy-5β-cholanic acid] was tested. Which EC50 ([1]; read-out: ATP EC50 (nM)) did it give?
**A.** Its EC50 is 0.8 nM.

**Q.** And the EC50 ([1]; read-out: MMP EC50 (nM))?
**A.** The EC50 was 0.52 nM.

**Q.** What about the “Neuronal morphology (elongation; % controls)” value ([1]; iNeurons from sPD patients, untreated sPD 48) of the same compound?
**A.** Its value is 78 % controls.

**Q.** What about the “ATP normalisation (% of controls)” value ([1]; iNeurons from sPD patients, untreated sPD 50) of the same compound?
**A.** Its value is 101 % of controls.

**Q.** And the “MMP normalisation (% of controls)” value ([1]; iNeurons from sPD patients, untreated sPD 52)?
**A.** Its value is 100 % of controls.

**Q.** And the “ROS (Normalisation) (% controls)” value ([1]; iNeurons from sPD patients, untreated sPD 115)?
**A.** Its value is 103 % controls.

**Q.** What about the “Increase in Complex I activity compared to untreated controls” value ([2]; 4 mg/kg dose) of the same compound?
**A.** Its value is “approximately 380%”.

**Q.** What about the “Increase in Complex I activity compared to untreated controls” value ([2]; 12 mg/kg dose) of the same compound?
**A.** The value was “approximately 800%”.

**Q.** What about the “Activated caspase 3 levels” value [3] of the same compound?
**A.** The value was 100 % of level in iNeurons from Controls.

**Q.** And the “% increase over vehicle treated (mean increase in ATP levels)” value [4]?
**A.** Its value is 24%.

**Q.** And the activity at 60 pM ([5]; read-out: MMP Bottom (% of vehicle treated))?
**A.** The activity at 60 pM was 100%.

**Q.** And the EC50 ([5]; read-out: MMP EC50 (nM))?
**A.** The EC50 was 4.07 nM.

**Q.** And the activity at 0.3 µM ([5]; read-out: MMP Top (% of vehicle treated))?
**A.** The activity at 0.3 µM was 114%.
